# Measurements published in patent EP2987533B1, “7-substituted piperazin-1-yl fluoroquinolone compounds, their use in the treatment of cancer, pharmaceutical compositions and a method for preparation” (priority 2014, dated 2016).
# Like-named read-outs stand apart in the source and are kept apart here.
# What was measured:
# melanoma = experiment: NCI five-dose SRB assay, subpanel average; conditions: 48 h; for GI50 / CC50: Homo sapiens; for GI50: read-out: GI50 (median growth inhibitory); for CC50: read-out: LC50 (median lethal); for TGI (total growth inhibitory): average over melanoma subpanel, five concentrations
# colon cancer = experiment: NCI five-dose SRB assay, subpanel average; conditions: 48 h; for GI50 / CC50: Homo sapiens; for GI50: read-out: GI50 (median growth inhibitory); for CC50: read-out: LC50 (median lethal); for TGI (total growth inhibitory): average over colon cancer subpanel, five concentrations
# NSC lung cancer = experiment: NCI five-dose SRB assay, subpanel average; conditions: 48 h; for GI50 / CC50: Homo sapiens; for GI50: read-out: GI50 (median growth inhibitory); for CC50: read-out: LC50 (median lethal); for TGI (total growth inhibitory): average over NSC lung cancer subpanel, five concentrations
# renal cancer = experiment: NCI five-dose SRB assay, subpanel average; conditions: 48 h; for GI50 / CC50: Homo sapiens; for GI50: read-out: GI50 (median growth inhibitory); for CC50: read-out: LC50 (median lethal); for TGI (total growth inhibitory): average over renal cancer subpanel, five concentrations
# [1] = system: full panel of about 60 human tumor cell lines; experiment: NCI five-dose SRB assay, full panel mean; conditions: 48 h; for GI50 / CC50: Homo sapiens; for GI50: read-out: GI50 MG-MID (Full panel mean-graph midpoint); for CC50: read-out: LC50 MG-MID (Full panel mean-graph midpoint); for TGI MG-MID (Full panel mean-graph midpoint): five concentrations
# breast cancer = experiment: NCI five-dose SRB assay, subpanel average; conditions: 48 h; for GI50 / CC50: Homo sapiens; for GI50: read-out: GI50 (median growth inhibitory); for CC50: read-out: LC50 (median lethal); for TGI (total growth inhibitory): average over breast cancer subpanel, five concentrations
# PRMI-8226 = experiment: NCI one-dose SRB growth assay; assay type: cell-based; conditions: Homo sapiens; PRMI-8226 (Leukemia), 10^-5 M, 48 h; read-out: % Growth Inhibition (GI %)
# Procedure: (§1) A primary anticancer assay was performed for an approximately 60 human tumor cell line panel derived from nine neoplastic diseases, in accordance with the protocol of the Drug Evaluation Branch, National Cancer Institute, Bethesda, MD (Monks A. et al., J. Natl. Cancer Inst 1991, 83, 757-766; Boyd M.R. and Paull K.D., Drug. Dev. Res. 1995, 34, 91-109; Shoemaker R.H., Nat. Rev. Cancer 2006, 6, 813-823). Briefly, tested compounds were added to the culture at a single concentration (10^-5M), and the cultures were incubated for 48 h. End point determinations were made with a protein binding dye, sulforhodamine B (SRB). The results for each tested compound were reported as the growth percentage of the treated cells when compared to that of the untreated control cells. The percentage growth was evaluated spectrophotometrically versus controls not treated with test agents.
# SF-268 = experiment: NCI one-dose SRB growth assay; assay type: cell-based; conditions: Homo sapiens; SF-268 (CNS Cancer), 10^-5 M, 48 h; read-out: % Growth Inhibition (GI %)
# Procedure: as §1
# HCT-15 = experiment: NCI one-dose SRB growth assay; assay type: cell-based; conditions: Homo sapiens; HCT-15 (Colon Cancer), 10^-5 M, 48 h; read-out: % Growth Inhibition (GI %)
# Procedure: as §1
# 786-0 = experiment: NCI one-dose SRB growth assay; assay type: cell-based; conditions: Homo sapiens; 786-0 (Renal Cancer), 10^-5 M, 48 h; read-out: % Growth Inhibition (GI %)
# Procedure: as §1
# UACC-257 = experiment: NCI one-dose SRB growth assay; assay type: cell-based; conditions: Homo sapiens; UACC-257 (Melanoma), 10^-5 M, 48 h; read-out: % Growth Inhibition (GI %)
# Procedure: as §1
# K-562 = experiment: NCI one-dose SRB growth assay; assay type: cell-based; conditions: Homo sapiens, K562; K-562 (Leukemia), 10^-5 M, 48 h; read-out: % Growth Inhibition (GI %)
# Procedure: as §1
# SNB-75 = experiment: NCI one-dose SRB growth assay; assay type: cell-based; conditions: Homo sapiens; SNB-75 (CNS Cancer), 10^-5 M, 48 h; read-out: % Growth Inhibition (GI %)
# Procedure: as §1
# SF-539 = experiment: NCI one-dose SRB growth assay; assay type: cell-based; conditions: Homo sapiens; SF-539 (CNS Cancer), 10^-5 M, 48 h; read-out: % Growth Inhibition (GI %)
# Procedure: as §1
# COLO 205 = experiment: NCI one-dose SRB growth assay; assay type: cell-based; conditions: Homo sapiens; COLO 205 (Colon Cancer), 10^-5 M, 48 h; read-out: % Growth Inhibition (GI %)
# Procedure: as §1
# HOP-62 = experiment: NCI one-dose SRB growth assay; assay type: cell-based; conditions: Homo sapiens; HOP-62 (Non-Small Cell Lung Cancer), 10^-5 M, 48 h; read-out: % Growth Inhibition (GI %)
# Procedure: as §1
# SW-620 = experiment: NCI one-dose SRB growth assay; assay type: cell-based; conditions: Homo sapiens; SW-620 (Colon Cancer), 10^-5 M, 48 h; read-out: % Growth Inhibition (GI %)
# Procedure: as §1
# MDA-MB-231/ATCC = experiment: NCI one-dose SRB growth assay; assay type: cell-based; conditions: Homo sapiens; MDA-MB- 231/ATCC (Breast Cancer), 10^-5 M, 48 h; read-out: % Growth Inhibition (GI %)
# Procedure: as §1
# DU-145 = experiment: NCI one-dose SRB growth assay; assay type: cell-based; conditions: Homo sapiens; DU-145 (Prostate Cancer), 10^-5 M, 48 h; read-out: % Growth Inhibition (GI %)
# Procedure: as §1
# HT29 = experiment: NCI one-dose SRB growth assay; assay type: cell-based; conditions: Homo sapiens, HT-29; HT29 (Colon Cancer), 10^-5 M, 48 h; read-out: % Growth Inhibition (GI %)
# Procedure: as §1
# CCRF-CEM = experiment: NCI one-dose SRB growth assay; assay type: cell-based; conditions: Homo sapiens; CCRF-CEM (Leukemia), 10^-5 M, 48 h; read-out: % Growth Inhibition (GI %)
# Procedure: as §1
# OVCAR-5 = experiment: NCI one-dose SRB growth assay; assay type: cell-based; conditions: Homo sapiens; OVCAR-5 (Ovarian Cancer), 10^-5 M, 48 h; read-out: % Growth Inhibition (GI %)
# Procedure: as §1
# MOLT-4 = experiment: NCI one-dose SRB growth assay; assay type: cell-based; conditions: Homo sapiens; MOLT-4 (Leukemia), 10^-5 M, 48 h; read-out: % Growth Inhibition (GI %)
# Procedure: as §1
# MCF7 = experiment: NCI one-dose SRB growth assay; assay type: cell-based; conditions: Homo sapiens; MCF7 (Breast Cancer), 10^-5 M, 48 h; read-out: % Growth Inhibition (GI %)
# Procedure: as §1
# [2] = system: 60 human tumor cell line panel; experiment: NCI 60 cell line one-dose SRB primary anticancer assay; assay type: cell-based; conditions: 60 cell lines assay in one dose, 10µM (title; head prints 10.0 mM), 48 h
# Procedure: as §1
SMILES,GI50 (melanoma),CC50 (melanoma),TGI (total growth inhibitory) (melanoma),GI50 (colon cancer),CC50 (colon cancer),TGI (total growth inhibitory) (colon cancer),GI50 (NSC lung cancer),CC50 (NSC lung cancer),TGI (total growth inhibitory) (NSC lung cancer),GI50 (renal cancer),CC50 (renal cancer),TGI (total growth inhibitory) (renal cancer),GI50 [1],TGI MG-MID (Full panel mean-graph midpoint) [1],GI50 (breast cancer),CC50 (breast cancer),TGI (total growth inhibitory) (breast cancer),inhibition at 10 µM (PRMI-8226),inhibition at 10 µM (SF-268),inhibition at 10 µM (HCT-15),other results
"O=c1[nH]cc(F)c(=O)[nH]1 [Compound 5-FU, 5-fluorouracil, reference compound]",70.6 µM,> 100 µM,c (Compounds showed values > 100µM),8.4 µM,> 100 µM,c (Compounds showed values > 100µM),> 100 µM,> 100 µM,c (Compounds showed values > 100µM),45.6 µM,> 100 µM,c (Compounds showed values > 100µM),22.6 µM,c (Compounds showed values > 100µM),76.4 µM,> 100 µM,c (Compounds showed values > 100µM),41.4%,59%,26.5%,CC50 [1]: > 100 µM; inhibition at 10 µM (786-0): 48.7%; inhibition at 10 µM (UACC-257): 19.5%; inhibition at 10 µM (K-562): 42.3%; inhibition at 10 µM (SNB-75): 65.9%; inhibition at 10 µM (SF-539): > 100%; inhibition at 10 µM (COLO 205): 40.2%; inhibition at 10 µM (HOP-62): 47.8%; inhibition at 10 µM (SW-620): 50.1%; inhibition at 10 µM (MDA-MB-231/ATCC): 78.1%; inhibition at 10 µM (DU-145): 35.5%; inhibition at 10 µM (HT29): 27.1%; inhibition at 10 µM (CCRF-CEM): 57.1%; inhibition at 10 µM (OVCAR-5): 44.3%; inhibition at 10 µM (MOLT-4): 43.1%; inhibition at 10 µM (MCF7): 11.5%
O=C(O)c1cn(C2CC2)c2cc(N3CCN(S(=O)(=O)c4ccc(Cl)c(Cl)c4)CC3)c(F)cc2c1=O [Compound 3b],2.54 µM,87.1 µM,52.41 µM,3.79 µM,> 100 µM,87.41 µM,3.07 µM,> 100 µM,84.28 µM,3.19 µM,> 100 µM,87.07 µM,3.09 µM,60.25 µM,3.04 µM,> 100 µM,81.37 µM,95.1%,80.4%,93.8%,"PCE (Positive cytotoxic effect: ratio between number of cell lines with percentage growth inhibition from 10 to >100 and total number of cell lines) [2]: 58/58; RGI % (Range of growth inhibition percentage) [2]: >100.0 to 46.49%; inhibition at 10 µM ([2]; Homo sapiens, read-out: MGI % (Mean growth inhibition percentage)): 89.2%; CC50 ([1]; 60 cell): 95.5 µM; inhibition at 10 µM (786-0): 72.2%; inhibition at 10 µM (UACC-257): 91.1%; inhibition at 10 µM (K-562): 83.1%; inhibition at 10 µM (SNB-75): 86.8%; inhibition at 10 µM (SF-539): 88.6%; inhibition at 10 µM (COLO 205): > 100%; inhibition at 10 µM (HOP-62): 84.8%; inhibition at 10 µM (SW-620): 79.3%; inhibition at 10 µM (MDA-MB-231/ATCC): 63.4%; inhibition at 10 µM (DU-145): 82.8%; inhibition at 10 µM (HT29): 99.7%; inhibition at 10 µM (CCRF-CEM): 83.1%; inhibition at 10 µM (OVCAR-5): 87.5%; inhibition at 10 µM (MOLT-4): 96.6%; inhibition at 10 µM (MCF7): 86.5%"
